Assays:
Format in all cases: in vivo
[1] = test system: Atlantic salmon (Salmo salar); assay: Example 1 feeding study: growth and feed conversion of fish on feed with carvacrol or Salvia officinalis extract; settings: for Final weight / Feed conversion ratio / Specific growth rate: 67 days, triplicate, Salvia = Salvia officinalis extract; for Final weight: initial weight about 170 g, sea water 11.8° C.
Method: (§1) Growth rate is expressed as percentage increase in body mass from day to day (Specific Growth Rate, SGR). This is calculated as:
(§2) [formula] FinalW=final weight InitW=initial weight Days=time from measuring initial weight to final weight
(§3) The common term to describe this is Feed Conversion Ratio (FCR) defined as: FCR=Amount of feed fed (kg)/Net growth of the fish (kg)
A control feed was prepared from fish meal (407.4 g), soybean meal (55.8 g), corn gluten (196.1 g), wheat (88.0 g), fish oil (247.3 g), mineral and vitamin premixes (3.8 g), yttrium premix (1.0 g, used to measure lipid digestibility as discussed below) and astaxanthin preparation (0.6 g). Pellets were extruded using the process explained above and coated with the fish oil.
Test feeds containing 0.1 wt % and 0.2 wt % carvacrol formulation (containing 50 wt % carvacrol and 50 wt % silica carrier) were prepared. The amount of active substance was 500 and 1000 mg per kg feed, respectively. In the comparison feeds, the amount of wheat was reduced to 87.0 g and 86.0 g respectively. The carvacrol formulation was added with the other microingredients to the mixer before preconditioning.
Test feeds containing 0.1 wt % and 0.2 wt % formulation of Salvia officinalis salvia extract (containing 50 wt % salvia extract and 50 wt % silica carrier) were prepared in a similar way.
The feed was fed to Atlantic salmon (Salmo salar) weighing 169 g (±3 g) at the onset of the study. The fish was stocked in tanks (1 m×1 m). There were 30 fish in each tank. Sea water temperature was 11.8° C. (±0.5° C.). The fish were fed for 67 days. The study was run in triplicate.

[2] = test system: Atlantic salmon (Salmo salar); assay: Example 2 feeding study: growth and feed conversion of fish on feed with carvacrol or Salvia lavandulifolia extract; settings: for Feed conversion ratio / Specific growth rate / Final weight: 82 days, Salvia = Salvia lavandulifolia extract; for Final weight: initial weight about 199 g, sea water 12° C., triplicate
Method: as §1, §2, §3
(§4) Control and comparison feeds were prepared as in Example 1. Salvia lavandulifolia salvia extract (CAS 8016-65-7) was used.
(§5) The feed was fed to Atlantic salmon (Salmo salar) weighing 199 g (±2.4 g) at the onset of the study. The fish were stocked in tanks (1 m×1 m). There were 35 fish in each tank. Sea water temperature was 12° C. The fish were fed for 82 days. The study was run in triplicate.

[3] = test system: Atlantic salmon (Salmo salar); assay: Example 2 lipid digestibility (Apparent Digestibility Coefficient, yttrium marker); settings: for ADC (%) lipid: Example 2, Salvia = Salvia lavandulifolia extract
Method: (§6) To achieve the above objects, additives that can increase the digestibility of fat and or protein are of value. This can be measured by the “Apparent Digestibility Coefficient”, calculated as: […]
(§7) Yttrium is added to the diet for the purpose of calculating ADC, but is otherwise not a necessary component of fish feed.
as §4, §5

[4] = test system: Atlantic salmon (Salmo salar); assay: Example 3 apparent digestibility of protein, C16:0, saturated fatty acids and total lipid; settings: for ADC protein (%) / ADC C16:0 (%) / ADC saturated fatty acids (%) / ADC total lipid (%): added as 100% oil, 96 days, one tank, Salvia lavandulifolia; for ADC protein (%): 8.9° C.
Method: as §6, §7
Control feed was prepared from South-American fish meal (526.2 g), soybean meal (40.0 g), corn gluten (79.0 g), wheat (120.4 g), South-American fish oil (230.3 g), mineral and vitamin premixes (2.5 g), yttrium premix (1.0 g), and astaxanthin preparation (0.6 g). Pellets were extruded using the process explained above and coated with the fish oil.
Test feeds were prepared containing carvacrol and/or salvia extract (Salvia lavandulifolia). Carvacrol and/or salvia extract were each added as 100% oil. Two different inclusion levels of separate carvacrol and salvia extract (0.5 g/kg and 1.0 g/kg) were tested.
Two test feeds were prepared with a combination of carvacrol and salvia extract. The inclusion levels were 1.0 g carvacrol and 0.2 g/kg salvia extract, and 0.5 g/kg carvacrol and 0.5 g/kg salvia extract, respectively. The carvacrol oil and/or salvia extract was mixed with the fish oil and coated onto the surface of the pellets by vacuum coating after drying of the pellets.
Pellet size was 3 mm for all feeds.
The feed was fed to Atlantic salmon (Salmo salar) weighing 156 g (±13 g) at the onset of the study. The fish was stocked in tanks holding 100 L water. There were 25 fish in each tank. Sea water temperature was 8.9° C.±0.2° C. The fish were fed for 96 days. The study was run with four control groups and one tank each for the different inclusion levels of carvacrol, salvia extract or combined carvacrol and salvia.
Apparent digestibility was determined for protein, the saturated fatty acid C16:0, the sum of all saturated fatty acids and the total lipid.

[5] = with increasing amounts in feed, Example 1, in words
[6] = with increasing amounts in feed, Example 2, in words
[7] = with increasing amounts in feed, Example 3, in words

Cc1ccc(C(C)C)cc1O [Carvacrol, 2-methyl-5(1-methylethyl)-phenol]
Final weight ([1]; 0.05 wt % additive in feed): 339 ± 18 g
Feed conversion ratio ([1]; 0.05 wt % additive in feed): 0.91 ± 0.05
Specific growth rate ([1]; 0.05 wt % additive in feed): 1.04 ± 0.05
Final weight ([1]; 0.1 wt % additive in feed): 354 ± 6 g
Feed conversion ratio ([1]; 0.1 wt % additive in feed): 0.87 ± 0.03
Specific growth rate ([1]; 0.1 wt % additive in feed): 1.09 ± 0.03
feed utilisation [1, 5]: improved
fish growth [1, 5]: increased
Feed conversion ratio ([2]; 0.05 wt % additive in feed): 0.68
Specific growth rate ([2]; 0.05 wt % additive in feed): 1.16
Final weight ([2]; 0.05 wt % additive in feed): 512 g
Feed conversion ratio ([2]; 0.1 wt % additive in feed): 0.70
Specific growth rate ([2]; 0.1 wt % additive in feed): 1.13
Final weight ([2]; 0.1 wt % additive in feed): 503 g
feed utilisation [2, 6]: improved
fish growth [2, 6]: increased
ADC (%) lipid ([3]; 0.05 wt % additive in feed): 95.78%
ADC (%) lipid ([3]; 0.1 wt % additive in feed): 97.65%
lipid digestibility [3, 6]: increased
ADC protein (%) ([4]; 0.05 wt % additive in feed): 88.8%
ADC C16:0 (%) ([4]; 0.05 wt % additive in feed): 75.3%
ADC saturated fatty acids (%) ([4]; 0.05 wt % additive in feed): 75.5%
ADC total lipid (%) ([4]; 0.05 wt % additive in feed): 89.2%
ADC protein (%) ([4]; 0.10 wt % additive in feed): 87.6%
ADC C16:0 (%) ([4]; 0.10 wt % additive in feed): 74.0%
ADC saturated fatty acids (%) ([4]; 0.10 wt % additive in feed): 74.4%
ADC total lipid (%) ([4]; 0.10 wt % additive in feed): 89.2%
lipid digestibility [4, 7]: increased
protein digestibility [4, 7]: increased
